From US6350742B1, “Compositions and methods for treating infections of the ear” (Carter-Wallace, Inc., priority 1998, dated 2002)

Experiments:
[1] = stability in aqueous solution; assay type: physicochemical; details: pre-packed and stored
[2] = system: microbiota indigenous to the human ear; experiment: activity against microbiota of the ear
[3] = stability in the solid state; assay type: physicochemical; details: stored at ambient conditions
[4] = apparent partition coefficient between octanol and water; assay type: physicochemical; details: water buffered at pH 7.2
[5] = solubility in aqueous solutions and organic solvents; assay type: physicochemical
[6] = system: mice; details: cited from earlier work
[7] = cited from earlier work
[8] = pH of a saturated solution in deionized water; assay type: physicochemical
[9] = system: antibiotic resistant strains of H.pylori, staphylococci, streptococci, enterococci; experiment: activity against antibiotic resistant bacteria; details: enterococci and other bacterial and nosocomial infections

stability in aqueous solution [1]: stored over relatively long periods | stability in the solid state [3]: acceptable stability in the solid state | apparent partition coefficient between octanol and water [4]: approximately 0.13 | solubility ([5]; CHCl3): insoluble | solubility ([5]; Dilute HCl): soluble | solubility ([5]; Dilute NaOH): soluble | solubility ([5]; EtOH): sparingly soluble | solubility ([5]; Water, 20° C.): 1% at 20 °C | pH of saturated solution [8]: 7.4
Structure (SMILES): O=S1(=O)CCN(CN2CCS(=O)(=O)NC2)CN1 [Taurolidine, 4,4′-methylenebis (tetrahydro-1,2,4-thiadiazine)-1,1,1′,1′ tetraoxide]
effect on growth of microbiota indigenous to the human ear [2]: eradicates or controls the growth | teratogenicity [6]: non-teratogenic | cumulative dose shown to be safe and well tolerated ([7]; cumulative doses): exceeding 300 g | systemic dose shown to be safe and well tolerated ([7]; systemic doses): exceeding 40 g/day | effect on antibiotic resistant strains [9]: destroys antibiotic resistant strains
